Measured values from patent publication US11339128B2 (Firmenich Incorporated, priority 2014, dated 2022).

Assays:
[1] = Sensory paired-comparison sweetness test of sweetener (sucrose or high-fructose corn syrup) with test compound; format: in vivo, human; details: test compound 10 ppm or less with 6% sucrose, low sodium buffer pH 7.1; sucrose-alone concentration of equivalent perceived sweetness
Procedure: Test samples containing either a sweetener (sucrose or high-fructose corn syrup) alone or in combination with a test compound were presented in pairs to a group of panelist who were asked to determine which of the samples was sweeter. Subjects refrained from eating or drinking (except water) for at least 1 hour prior to the test. Subjects rinsed with water several times to clean the mouth. The samples within a paired comparison test were presented in a randomized, counterbalanced order. Panelists had up to a 1 minute delay between taste tests to clear the mouth of any tastes. Binomial probability tables were used to determine the probability of the correct number of responses occurring for each test at alpha-0.05.
Stock solutions of test compounds were prepared at 1000× final concentration with ethanol to ensure dispersion in solution. Test compound samples including sucrose were prepared by diluting the stock solutions in a low sodium buffer (0.952 g of KCl, 5.444 g of Na2HPO4, and 0.952 g of KH2PO4 in deionized ultrafiltered water) at pH 7.1 and containing sucrose. Test compound samples including high fructose corn syrup were prepared by diluting the stock solutions in the low sodium buffer at pH 2.8 (using citric acid to adjust the pH) and containing high fructose corn syrup. Control samples were balanced to 0.1% ethanol final.
In samples containing the test compound, the test compound was present at a concentration of 10 ppm or less and the concentration of sucrose was 6%. This table indicates the sucrose-alone concentration having a perceived sweetness intensity equivalent to the sweetness intensity of the combination of test compound and sucrose. An “A” value indicates an equivalent sucrose concentration greater than 6% and less than 10%. A “B” value indicates an equivalent sucrose concentration of 10% or greater. […]

T1R2/T1R3 taste receptor = molecular target: T1, T1R2/T1R3 taste receptor (Homo sapiens, UniProt Q7RTX0+Q8TE23); test: Receptor-based assay: sweetener EC50 enhancement ratio with and without test compound; format: cell-based; details: for Sucrose Enhancement EC50 Ratio: sweetener sucrose; for Sucralose Enhancement EC50 Ratio: sweetener sucralose
T1 sequence (Q8TE23 20-839): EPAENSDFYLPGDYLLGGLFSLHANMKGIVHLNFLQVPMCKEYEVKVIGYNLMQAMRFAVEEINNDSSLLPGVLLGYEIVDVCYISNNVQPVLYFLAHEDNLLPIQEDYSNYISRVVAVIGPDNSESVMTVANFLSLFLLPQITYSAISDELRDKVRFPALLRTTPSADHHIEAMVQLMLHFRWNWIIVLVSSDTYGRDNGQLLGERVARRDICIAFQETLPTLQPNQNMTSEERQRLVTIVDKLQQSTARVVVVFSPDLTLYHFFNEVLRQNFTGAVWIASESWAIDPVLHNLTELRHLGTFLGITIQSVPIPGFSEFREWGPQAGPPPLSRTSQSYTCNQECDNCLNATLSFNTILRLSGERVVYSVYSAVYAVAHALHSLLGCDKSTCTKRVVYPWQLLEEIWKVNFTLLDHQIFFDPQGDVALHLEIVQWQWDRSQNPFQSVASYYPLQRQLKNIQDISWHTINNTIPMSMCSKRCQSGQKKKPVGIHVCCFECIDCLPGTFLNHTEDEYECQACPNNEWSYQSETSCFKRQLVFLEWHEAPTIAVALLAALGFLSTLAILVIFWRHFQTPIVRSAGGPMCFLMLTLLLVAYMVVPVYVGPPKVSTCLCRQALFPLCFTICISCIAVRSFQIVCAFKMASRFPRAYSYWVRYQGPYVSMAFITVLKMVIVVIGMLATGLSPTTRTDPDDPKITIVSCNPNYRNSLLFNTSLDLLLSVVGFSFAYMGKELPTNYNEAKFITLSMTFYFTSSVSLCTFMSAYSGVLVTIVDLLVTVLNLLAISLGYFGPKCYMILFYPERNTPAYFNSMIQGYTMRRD
T1 sequence (Q7RTX0 21-852): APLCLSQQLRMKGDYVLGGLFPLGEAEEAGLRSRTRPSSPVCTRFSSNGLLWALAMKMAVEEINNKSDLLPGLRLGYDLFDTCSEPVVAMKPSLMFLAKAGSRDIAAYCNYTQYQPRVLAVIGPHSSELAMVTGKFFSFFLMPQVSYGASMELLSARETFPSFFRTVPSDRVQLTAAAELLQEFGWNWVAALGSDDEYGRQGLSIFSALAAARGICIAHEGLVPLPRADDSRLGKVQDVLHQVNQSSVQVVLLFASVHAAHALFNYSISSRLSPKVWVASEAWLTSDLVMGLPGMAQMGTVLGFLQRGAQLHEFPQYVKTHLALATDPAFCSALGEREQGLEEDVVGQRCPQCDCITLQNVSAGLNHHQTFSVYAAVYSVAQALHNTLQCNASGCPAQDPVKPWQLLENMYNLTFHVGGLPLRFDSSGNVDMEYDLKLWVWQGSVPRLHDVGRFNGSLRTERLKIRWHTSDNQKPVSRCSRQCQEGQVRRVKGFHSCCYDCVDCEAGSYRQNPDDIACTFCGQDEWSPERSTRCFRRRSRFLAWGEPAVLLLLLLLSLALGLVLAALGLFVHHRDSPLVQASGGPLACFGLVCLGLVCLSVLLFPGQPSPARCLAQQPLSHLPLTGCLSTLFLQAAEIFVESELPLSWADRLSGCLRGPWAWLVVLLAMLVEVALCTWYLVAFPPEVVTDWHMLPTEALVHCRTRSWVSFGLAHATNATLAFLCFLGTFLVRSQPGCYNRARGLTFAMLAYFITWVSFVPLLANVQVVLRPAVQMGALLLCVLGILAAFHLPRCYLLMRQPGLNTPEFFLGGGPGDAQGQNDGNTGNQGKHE
Procedure, shortened: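 Sweetener (sucrose, sucralose, fructose) EC50 measured alone and with 1, 3, 10 or 50 μM test compound. Enhancement ratio = EC50 without/with compound; A = >1 to <10, B = 10–20, C = >20.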

Row | SMILES | Equivalent Sucrose Conc. [1] | Sucrose Enhancement EC50 Ratio (T1R2/T1R3 taste receptor; 1 μM test compound) | Sucrose Enhancement EC50 Ratio (T1R2/T1R3 taste receptor; 3 μM test compound) | Sucralose Enhancement EC50 Ratio (T1R2/T1R3 taste receptor; 10 μM test compound) | Sucrose Enhancement EC50 Ratio (T1R2/T1R3 taste receptor; 10 μM test compound) | melting point [°C] | Sucralose Enhancement EC50 Ratio (T1R2/T1R3 taste receptor; 3 μM test compound)
1 | CCOCC(=O)N[C@H]1CC[C@H](Oc2cccc3nc(C)c(C(=O)O)c(N)c23)CC1 [Compound 300, 4-Amino-5-((trans-4-(2-ethoxyacetamido)cyclohexyl)oxy)-2-methylquinoline-3-carboxylic acid] | B (an equivalent sucrose concentration of 10% or greater) | B (an enhancement ratio from 10 to 20) | C (an enhancement ratio greater than 20) | B (an enhancement ratio from 10 to 20) | C (an enhancement ratio greater than 20) | 204 to 206 | –
2 | Cc1nc2cccc(O[C@H]3CC[C@H](C)CC3)c2c(N)c1C(=O)O [Compound 100, 4-Amino-2-methyl-5-((trans-4-methylcyclohexyl)oxy)quinoline-3-carboxylic acid] | B (an equivalent sucrose concentration of 10% or greater) | B (an enhancement ratio from 10 to 20) | C (an enhancement ratio greater than 20) | – | C (an enhancement ratio greater than 20) | 225 to 228 | –
3 | Cc1nc2cccc(O[C@H]3CC[C@H](NC(=O)COCC(C)C)CC3)c2c(N)c1C(=O)O [Compound 307] | B (an equivalent sucrose concentration of 10% or greater) | A (an enhancement ratio of greater than 1 and less than 10) | C (an enhancement ratio greater than 20) | – | – | – | B (an enhancement ratio from 10 to 20)
